Marks after values point to notes of the source that are not given here.
Tests used:
[1] = Sweetness intensity of a water sample of derivative product compared with a water sample of sucrose (Example 4); format: in vivo; details: for Sweetness Intensity of Derivative Product (as compared to equivalent amount of sucrose): in water, amount of sample by weight: 1 (II) 3.6 %, 2 (IV) 1.1 %, 3 (III) 9.7 %, 4 (V) 6 %
Description: The sweetness intensity of the foregoing rebaudioside A derivative products was analyzed by comparing the sweetness intensity of a water sample having a particular amount of sucrose with a second water sample having an identical amount of a rebaudioside A derivative product.

[2] = Quality of sweetness: sensory attributes scored on a 15-point unstructured line scale; format: in vivo; set-up: key to Stale Flavor / Metallic Flavor / Mouth Numbing / Mouthburn / Stale Aftertaste / Metallic Aftertaste / Overall Aroma / Sweet Aromatic Aroma / Stale Aroma: scores on a 15-point unstructured line scale; details: for Metallic Aftertaste / Metallic Flavor / Mouth Numbing / Mouthburn / Stale Flavor / Overall Aroma / Stale Aftertaste / Stale Aroma / Sweet Aromatic Aroma / Astringency / Bitterness / Bitterness Aftertaste / Black Licorice Aftertaste / Black Licorice Flavor / Cooling / Overall Aftertaste / Overall Flavor / Sweet Aromatic Aftertaste / Sweet Aromatic Flavor / Sweetness / Sweetness Aftertaste: mean score, 15-point line scale, two replications, room temperature; for Overall Aroma / Stale Aftertaste / Stale Aroma / Sweet Aromatic Aroma: more than 50% of responses zero; for Astringency / Bitterness / Bitterness Aftertaste / Black Licorice Aftertaste / Black Licorice Flavor / Cooling / Overall Aftertaste / Overall Flavor / Sweet Aromatic Aftertaste / Sweet Aromatic Flavor / Sweetness / Sweetness Aftertaste: same superscript letter = not significantly different (95%); for characteristics which were not significantly different from sucrose (number): Fisher's LSD 5%, 95% confidence level
Description: The quality of sweetness of the rebaudioside A derivative products 1 (II), 2 (IV), 3 (III), and 4 (V) also was evaluated and compared to that of rebaudioside A, rebaudioside B, rebaudioside F, and sucrose at room temperature. For each attribute, the sweeteners received a score based on a 15-point unstructured line scale. […] A multiple comparison test, Fisher's LSD 5%, aided in the comparative analysis of the scores.

[3] = Sweetness potency of derivative products compared to sucrose at iso-sweetness levels (Example 1); details: in vivo
From the text: These rebaudioside A derivative products were characterized as having an intense sweetening potency. […] Thus, the rebaudioside A derivative products are suitable for use as sweeteners for sweetenable compositions.

Compound | Metallic Aftertaste [2] | Metallic Flavor [2] | Mouth Numbing [2] | Mouthburn [2] | Stale Flavor [2] | Overall Aroma [2] | Stale Aftertaste [2] | Stale Aroma [2] | Sweet Aromatic Aroma [2] | Astringency [2] | Bitterness [2] | Bitterness Aftertaste [2] | Black Licorice Aftertaste [2] | Black Licorice Flavor [2] | Cooling [2] | Overall Aftertaste [2] | Overall Flavor [2] | Sweet Aromatic Aftertaste [2] | Sweet Aromatic Flavor [2] | Sweetness [2] | other results
CC1(C(=O)OC2OC(CO)C(O)C(O)C2O)CCCC2(C)C3CCC4(OC5OC(CO)C(O)C(OC6OC(CO)C(O)C(O)C6O)C5OC5OC(CO)C(O)C(O)C5O)CC3(CCC12)CC4(C)O [Derivative Product 1 (II), 13-[(2-O-β-D-glucopyranosyl-3-O-β-D-glucopyranosyl-β-D-glucopyranosyl)oxy]-16-hydroxy kauran-18-oic acid β-D-glucopyranosyl ester] | 0.67 | 0.71 | 0.38 | 1.11 | 1.01 | 0.17 | 0.56 | 0.10 | 0.04 | 2.38^c | 2.28^bcd | 1.32^cd | 0.00^c | 0.00^d | 0.29^bc | 2.18^d | 3.14^c | 0.09^d | 0.06^c | 1.54^d | Sweetness Intensity of Derivative Product (as compared to equivalent amount of sucrose) [1]: 30; sweetness intensity, times that of sucrose ([1]; water solution vs same weight percentage of sucrose, 3.6 weight percent for 1 (II)): at least 30 times; Sweetness Aftertaste [2]: 0.70^d
CC1=CC23CCC4C(C)(C(=O)OC5OC(CO)C(O)C(O)C5O)CCCC4(C)C2CCC1(OC1OC(CO)C(O)C(OC2OC(CO)C(O)C(O)C2O)C1OC1OC(CO)C(O)C(O)C1O)C3 [Derivative Product 2 (IV), 13-[(2-O-β-D-glucopyranosyl-3-O-β-D-glucopyranosyl-β-D-glucopyranosyl)oxy]kaur-15-en-18-oic acid β-D-glucopyranosyl ester] | 0.88 | 0.82 | 0.97 | 1.45 | 1.21 | 0.09 | 0.74 | 0.06 | 0.00 | 2.90^ab | 2.86^ab | 1.82^ab | 0.00^c | 0.07^d | 0.12^c | 2.35^d | 3.58^c | 0.20^cd | 0.19^bc | 1.14^d | Sweetness Intensity of Derivative Product (as compared to equivalent amount of sucrose) [1]: 20; characteristics which were not significantly different from sucrose (number) [2]: 8; overall flavor and sweetness relative to sucrose ([2]; in vivo): comparable to sucrose; Sweetness Aftertaste [2]: 0.41^d
CC1(C(=O)O)CCCC2(C)C3CCC4(OC5OC(CO)C(O)C(OC6OC(CO)C(O)C(O)C6O)C5OC5OC(CO)C(O)C(O)C5O)CC3(CCC12)CC4(C)O [Derivative Product 3 (III), 13-[(2-O-β-D-glucopyranosyl-3-O-β-D-glucopyranosyl-β-D-glucopyranosyl)oxy]-16-hydroxy kauran-18-oic acid] | 0.83 | 1.02 | 1.09 | 1.15 | 0.63 | 0.09 | 0.41 | 0.00 | 0.08 | 3.27^a | 2.90^ab | 1.75^abc | 1.37^a | 1.84^ab | 0.57^b | 5.72^ab | 10.02^a | 0.68^abc | 0.77^ab | 9.73^a | Sweetness Intensity of Derivative Product (as compared to equivalent amount of sucrose) [1]: 190; taste quality [3]: sweet clean taste similar to sugar; Sweetness Aftertaste [2]: 5.38^ab
CC1=CC23CCC4C(C)(C(=O)O)CCCC4(C)C2CCC1(OC1OC(CO)C(O)C(OC2OC(CO)C(O)C(O)C2O)C1OC1OC(CO)C(O)C(O)C1O)C3 [Derivative Product 4 (V), 13-[(2-O-β-D-glucopyranosyl-3-O-β-D-glucopyranosyl-β-D-glucopyranosyl)oxy]kaur-15-en-18-oic acid] | 0.63 | 0.87 | 0.90 | 1.23 | 0.77 | 0.19 | 0.47 | 0.09 | 0.00 | 3.01^ab | 2.08^cde | 1.38^bcd | 1.25^a | 1.40^bc | 0.70^ab | 5.24^b | 6.44^b | 0.83^ab | 0.75^ab | 6.04^b | Sweetness Intensity of Derivative Product (as compared to equivalent amount of sucrose) [1]: 120; taste quality [3]: sweet clean taste similar to sugar; characteristics which were not significantly different from sucrose (number) [2]: 8; Sweetness Aftertaste [2]: 4.85^b
C=C1C[C@@]23CC[C@H]4[C@@](C)(CCC[C@@]4(C)C(=O)OC4OC(CO)C(O)C(O)C4O)[C@@H]2CC[C@]1(OC1OC(CO)C(O)C(OC2OC(CO)C(O)C(O)C2O)C1OC1OC(CO)C(O)C(O)C1O)C3 (stereo partly shown) [Reb. A, Rebaudioside A] | 0.80 | 0.97 | 0.76 | 1.29 | 0.89 | 0.16 | 0.48 | 0.00 | 0.14 | 3.14^ab | 3.43^a | 2.21^a | 1.47^a | 2.31^a | 1.10^a | 6.34^a | 9.88^a | 0.50^bcd | 0.71^ab | 9.59^a | Sweetness Aftertaste [2]: 5.91^a
OC[C@H]1O[C@@](CO)(O[C@H]2O[C@H](CO)[C@@H](O)[C@H](O)[C@H]2O)[C@@H](O)[C@@H]1O [Sucrose, sucrose, reference compound] | 0.67 | 1.04 | 0.57 | 1.06 | 0.50 | 0.40 | 0.58 | 0.11 | 0.24 | 3.03^ab | 1.47^e | 0.97^d | 0.26^c | 0.13^d | 0.38^bc | 5.05^b | 10.73^a | 1.01^a | 1.12^a | 10.45^a | Sweetness Aftertaste [2]: 4.76^b
rebaudioside B [Reb. B, reference compound] | 0.47 | 0.82 | 0.54 | 0.97 | 0.92 | 0.28 | 0.63 | 0.26 | 0.00 | 2.79^bc | 1.72^de | 1.07^d | 0.80^b | 0.89^c | 0.57^b | 3.54^c | 4.20^c | 0.46^bcd | 0.54^abc | 3.55^c | Sweetness Aftertaste [2]: 3.11^c
rebaudioside F [Reb. F, reference compound] | 0.88 | 1.13 | 0.98 | 1.35 | 1.14 | 0.29 | 0.81 | 0.00 | 0.18 | 3.28^a | 2.64^bc | 1.70^bc | 0.75^b | 0.88^c | 0.57^b | 3.89^c | 5.38^b | 0.46^bcd | 0.59^abc | 4.98^b | Sweetness Aftertaste [2]: 3.34^c
